Measurements reported in patent US6890708B2, “Method for improving the quality of sperm for artificial insemination of animals” (priority 2000, dated 2005).

Key:
[1] = tested on: boar spermatozoa; test: Sperm viability in vitro (motility, acrosome morphology), Example I; format: cell-based, pig
[2] = tested on: boar spermatozoa; test: as above; format: cell-based, pig; remark: listed apart in the source
Description: Aliquots of 80 μl of the PMN suspension (see, PMN isolation and preparation of PMNs) in TM or TM-s, with either intact or inactivated complement, were transferred to a 96-well polystyrene microtest plate. To each well, 20 μl of sperm suspension (see, preparation of semen samples) was added and the microtest plate was placed in a humidified incubator at 38° C. with 5% CO2 in air. […] The samples were incubated with gentle swirling on a test plate shaker. After 15, 30, 45, 60 or 90 min., samples were quantitatively transferred into tubes containing an equal volume of 40 mg ml^−1 heparin (Sigma) in PBS. The heparin facilitates dissociation of agglutinated PMNs. The samples were thoroughly mixed, left for 15 min., and mixed again. Subsamples of 75 μl were fixed by addition of 25 μl of 2% (v/v) glutaraldehyde (Fluka, Brunschwig chemie, Amsterdam, The Netherlands) in PBS. “Blank” samples, i.e., sperm without PMNs (80 μl TM-s mixed with 20 μl sperm suspension), were incubated in parallel to monitor sperm survival during the treatment. “Reference” samples, i.e., frozen-thawed (killed) semen, were incubated in parallel with the PMNs as a reference for the phagocytotic activity of the PMNs. The frozen-thawed semen was taken from a large stock of semen from one ejaculate and washed 3 times in PBS prior to use.
For evaluation of phagocytosis, wet mounts of the fixed samples were examined with a combination of phase-contrast and fluorescence microscopy (Olympus BH2, Tokyo, Japan) at 400× magnification. The mounts enabled observation and counting of fluorescently labeled spermatozoa inside and outside the phagocytes. By focusing at different levels in the mount, spermatozoa that were located above or below the PMN could be distinguished from those that were phagocytosed. […] Two hundred spermatozoa were evaluated and classified as inside or outside the PMN (i.e., phagocytosed or not phagocytosed). The same fixed mounts were used to assess the acrosome morphology of the non-phagocytosed spermatozoa at the moment of fixation. One hundred cells were classified using phase-contrast microscopy at 400× magnification, as NAR (normal apical ridge), NAR' (slightly altered normal apical ridge), DAR (damaged apical ridge), MAR (missing apical ridge) and LAC (loose acrosomal cap), as described by Pursel et al. (Pursel V G, Schulman L L and Johnson L A, 1978, Distribution and morphology of fresh and frozen-thawed sperm in the reproductive tract of gilts after insemination Biology of Reproduction 19 69-76.)

[3] = Exp. 1, after adding active compound and pre-incubation 30 min. at 38° C.
[4] = Exp. 2, 0.2 mM, after adding active compound, without pre-incubation
[5] = Exp. 3, 1 mM, after pre-incubation of sperm 30 min. at 38° C.
[6] = Exp. 1, blank samples without PMN, phagocytosis time 60 min.
[7] = Exp. 1, blank samples without PMN, preincubated 30 min. at 38° C., phagocytosis time 30 min.
[8] = Exp. 2, 0.2 mM, blank samples without PMN, without pre-incubation, phagocytosis time 30 min.
[9] = Exp. 2, 0.5 mM, after adding active compound, after pre-incubation
[10] = Exp. 2, 0.5 mM, after adding active compound, without pre-incubation
[11] = Exp. 2, 0.5 mM, blank samples without PMN, after pre-incubation
[12] = Exp. 2, 0.5 mM, blank samples without PMN, without pre-incubation, phagocytosis time 30 min.
[13] = Exp. 2, 1 mM, after adding active compound, after pre-incubation
[14] = Exp. 2, 1 mM, after adding active compound, without pre-incubation
[15] = Exp. 2, 1 mM, blank samples without PMN, after pre-incubation
[16] = Exp. 2, 1 mM, blank samples without PMN, without pre-incubation, phagocytosis time 30 min.
[17] = Exp. 2, 2 mM, after adding active compound, after pre-incubation
[18] = Exp. 2, 2 mM, after adding active compound, without pre-incubation
[19] = Exp. 2, 2 mM, blank samples without PMN, after pre-incubation
[20] = Exp. 2, 2 mM, blank samples without PMN, without pre-incubation, phagocytosis time 30 min.
[21] = Exp. 3, 1 caffeine, blank samples without PMN, after pre-incubation at 38° C., phagocytosis time 30 min.

With `Cn1c(=O)c2c(ncn2C)n(C)c1=O` [caffeine, 1,3,7-Trimethylxanthine] the “% motile sperm” value [1, 3] was 60%, the “% NAR” value [1, 4] was 84% and the “% motile sperm” value [1, 5] was 65%. The “% DAR” value [2, 3] was 30%, the “% LAC” value [2, 3] was 15% and the “% MAR” value [2, 3] was 02%. The “% NAR” value [2, 3] was 53%, the “% LAC” value [2, 6] was 22% and the “% MAR (second value of NAR-MAR-MAR-LAC)” value [2, 6] was 36%. For the same compound, the “% MAR (third value of NAR-MAR-MAR-LAC)” value [2, 6] was 05%, the “% NAR” value [2, 6] was 37% and the “% LAC” value [2, 7] was 21%. The “% MAR (second value of NAR-MAR-MAR-LAC)” value [2, 7] was 39%, the “% MAR (third value of NAR-MAR-MAR-LAC)” value [2, 7] was 03% and the “% NAR” value [2, 7] was 37%. For the same compound, the “% DAR” value [2, 4] was 12%, the “% LAC” value [2, 4] was 03% and the “% MAR” value [2, 4] was 01%. The “% motile sperm” value [2, 4] was 80%, the “% DAR” value [2, 8] was 12% and the “% LAC” value [2, 8] was 03%. The “% MAR” value [2, 8] was 00%, the “% NAR” value [2, 8] was 85% and the “% DAR” value [2, 9] was 14%. For the same compound, the “% LAC” value [2, 9] was 02%, the “% MAR” value [2, 9] was 01% and the “% NAR” value [2, 9] was 83%. The “% motile sperm” value [2, 9] was 80%, the “% DAR” value [2, 10] was 12% and the “% LAC” value [2, 10] was 02%. For the same compound, the “% MAR” value [2, 10] was 02%, the “% NAR” value [2, 10] was 84% and the “% motile sperm” value [2, 10] was 80%. For the same compound, the “% DAR” value [2, 11] was 12%, the “% LAC” value [2, 11] was 02% and the “% MAR” value [2, 11] was 01%. The “% NAR” value [2, 11] was 85%, the “% DAR” value [2, 12] was 10% and the “% LAC” value [2, 12] was 03%. The “% MAR” value [2, 12] was 00%, the “% NAR” value [2, 12] was 87% and the “% DAR” value [2, 13] was 16%. The “% LAC” value [2, 13] was 06%, the “% MAR” value [2, 13] was 01% and the “% NAR” value [2, 13] was 77%. For the same compound, the “% motile sperm” value [2, 13] was 80%, the “% DAR” value [2, 14] was 09% and the “% LAC” value [2, 14] was 03%. The “% MAR” value [2, 14] was 01%, the “% NAR” value [2, 14] was 87% and the “% motile sperm” value [2, 14] was 80%. For the same compound, the “% DAR” value [2, 15] was 21%, the “% LAC” value [2, 15] was 06% and the “% MAR” value [2, 15] was 01%. For the same compound, the “% NAR” value [2, 15] was 72%, the “% DAR” value [2, 16] was 10% and the “% LAC” value [2, 16] was 05%. For the same compound, the “% MAR” value [2, 16] was 00%, the “% NAR” value [2, 16] was 85% and the “% DAR” value [2, 17] was 20%. The “% LAC” value [2, 17] was 05%, the “% MAR” value [2, 17] was 02% and the “% NAR” value [2, 17] was 73%. The “% motile sperm” value [2, 17] was 80%, the “% DAR” value [2, 18] was 13% and the “% LAC” value [2, 18] was 04%. The “% MAR” value [2, 18] was 01%, the “% NAR” value [2, 18] was 82% and the “% motile sperm” value [2, 18] was 80%. The “% DAR” value [2, 19] was 24%, the “% LAC” value [2, 19] was 05% and the “% MAR” value [2, 19] was 01%. For the same compound, the “% NAR” value [2, 19] was 70%, the “% DAR” value [2, 20] was 12% and the “% LAC” value [2, 20] was 08%. The “% MAR” value [2, 20] was 01%, the “% NAR” value [2, 20] was 79% and the “% DAR” value [2, 5] was 24%. For the same compound, the “% LAC” value [2, 5] was 08%, the “% MAR” value [2, 5] was 01% and the “% NAR” value [2, 5] was 67%. For the same compound, the “% DAR” value [2, 21] was 24%, the “% LAC” value [2, 21] was 08% and the “% MAR” value [2, 21] was 02%. The “% NAR” value [2, 21] was 66%.
